Entries after “also recorded” stand apart in the source; their conditions may differ.
How the values were obtained:
[1] = tested on: pyramidal neurons in layer II/III of ACC slices; test: LTP induced by pairing training, whole-cell patch-clamp recordings in ACC slices; format: cell-based, mouse; conditions: for effect on LTP induced by pairing training: FIG. 3
Protocol: Experiments were performed in a recording chamber on the stage of an Axioskop 2FS microscope with infrared DIC optics for visualizing whole-cell patch clamp recordings. EPSCs were recorded from layer II-III neurons using an Axon 200B amplifier (Axon Instruments, CA) and stimulations were delivered using a bipolar tungsten stimulating electrode placed in layer V of the ACC. In hippocampal slices, EPSCs were evoked by stimulating the Schaffer collateral-commissural pathway. EPSCs were induced by repetitive stimulations at 0.02 Hz and neurons were voltage clamped at −70 mV. […] The first protocol involved paired presynaptic 80 pulses at 2 Hz with postsynaptic depolarization at +30 mV (referred to as pairing training). The second involved paired 3 presynaptic stimuli that caused 3 EPSPs (10 ms ahead) with 3 postsynaptic APs at 30 Hz, paired 15 times every 5 s (named as EPSPs-APs protocol). The third involved theta-burst stimulation (5 trains of burst with 4 pulses at 100 Hz, at 200 ms interval; repeated 4 times at intervals of 10 s; named as TBS). The NMDAR-mediated component of EPSCs was pharmacologically isolated in Mg^2+-free ACSF containing: CNQX (20 μM), glycine (1 μM) and picrotoxin (100 μM). […] Neurons were voltage clamped at −60 mV and NMDARs-mediated EPSCs were evoked at 0.05 Hz. Picrotoxin (100 μM) was always present to block GABAA receptor-mediated inhibitory synaptic currents. The access resistance was 15-30 MΩ and was monitored throughout the experiment. […] Results are expressed as means±SEM. Statistical comparisons were performed using the Student t-test.
Whole-cell patch-clamp recordings were conducted in visually identified pyramidal neurons in layer II/III of ACC slices. Pyramidal neurons were identified by injecting depolarized currents into neurons to induce action potentials. […] Pyramidal neurons were also identified based on the pyramid shape of their somata by putting Lucifer yellow into the intracellular solution (FIG. 1A).

[2] = tested on: male Sprague Dawley rats; test: Rat fear conditioning (contextual and auditory fear memory); format: in vivo
Text: For one site drug infusion, 23-guage guide cannulas were implanted bilaterally into the dorsal hippocampus (CA1 region: 3.2 mm posterior to Bregma, ±1.5˜1.7 mm lateral from the midline, 1.7 mm beneath the surface of the skull). For two sites drug infusion, guide cannulas were implanted bilaterally into the dorsal hippocampus (first injection site: 2.8 mm posterior to Bregma, ±1.5 mm lateral from the midline, 1.7 mm beneath the surface of the skull; second injection site: 3.8 mm posterior to Bregma, ±1.8˜2.2 mm lateral from the midline, 1.3 mm beneath the surface of the skull). The dummy cannulas, cut 0.5 mm longer than guide cannulas, were inserted into the guide cannulas to prevent clogging and reduce the risk of infection. Rats were given at least 5 days to recover before experimentation. A 30-gauge injection cannula that was 1.5 mm lower than the guide was used for intra-hippocampal infusion. 1.0 μl Ro25-6981 (0.1 μg /μl) or saline was delivered bilaterally at the rate of 0.5 μl/min using a pump. After infusion, the cannulas were left in place for an additional 2 min to allow the solution to diffuse away from the cannula tip. Fifteen minutes later, rats were conditioned by one pairing of a tone (2.2 kHz, 96 dB, 30 s) and a foot shock (2.0 mA, 2 s) that terminated at the same time as the tone. […] Rats were returned to the conditioning chamber and allowed to stay in the chamber for 3-min without footshock.
However, the effects of local hippocampal injections of NR2B antagonists on fear conditioning have not been examined. Ro25-6981 (5 μg in 0.5 μl) was bilaterally injected into dorsal hippocampi (FIG. 8B) before conditional training. […] The NR2B specific antagonist was also injected into the ACC and hippocampus of rats and contextual and auditory fear memory was then measured. […] Hippocampal injections of a higher dose of Ro25-6981 (5 μg in 1 μl per side) bilaterally or multiple injections of the same dose (2 per side) were then tested to determine their affect on either contextual or auditory fear memory.

[3] = hippocampal injections 5 μg in 1 μl per side, single or multiple (2 per side)

Q: For `C[C@@H](CN1CCC(Cc2ccccc2)CC1)[C@@H](O)c1ccc(O)cc1` [Ro25-6981], which “synaptic responses after pairing training (LTP), % of baseline” value ([1]; 0.3 μM) is on record?
A: The value was 132.8±7.4%.

Q: What about the “effect on LTP induced by pairing training” value ([1]; 0.3 μM) of the same compound?
A: Its value is “partially depressed”.

Q: And the “synaptic responses after pairing training (LTP), % of baseline” value ([1]; 3 μM)?
A: The value was 126.8±7.5%.

Q: And the “effect on LTP induced by pairing training” value ([1]; 3 μM)?
A: Its value is “partially depressed”.

Q: What about the contextual memory ([2]; 0.1 μg in 1 μl bilaterally into dorsal hippocampus before fear conditioning) of the same compound?
A: Its contextual memory is “did not impair contextual fear memory; also recorded: did not produce a significant impairment”.

Q: What about the auditory fear memory [2, 3] of the same compound?
A: The auditory fear memory was “Neither single nor multiple injections of Ro25-6981 produced a significant impairment”.

Q: And the contextual fear memory [2, 3]?
A: Its contextual fear memory is “Neither single nor multiple injections of Ro25-6981 produced a significant impairment”.

Q: What about the contextual fear memory ([2]; in 1 μl per side bilaterally into the ACC before conditioning, tested one day after training) of the same compound?
A: Its contextual fear memory is “impaired contextual fear memory; also recorded: significant reduction in contextual fear memory”.

Q: And the auditory fear memory ([2]; injected in the ACC)?
A: Its auditory fear memory is “did not affect auditory fear memory”.

Q: And the auditory fear memory ([2]; injected in the hippocampus)?
A: Its auditory fear memory is “did not affect auditory fear memory”.

Reference: patent US20070161592A1, “Method of treating fear” (priority 2005, published 2007)
